The term EC50 denotes the concentration that produces a half-maximal response. Read a high EC50 as a less potent agent. For orientation: AUC means concentration integrated over time. What is called half-life is the time needed for the level to fall by half in the phase considered.

The first data set addresses T1, Oxysterols receptor LXR-alpha (Homo sapiens, UniProt Q13133).
T1 sequence (Q13133 whole entry): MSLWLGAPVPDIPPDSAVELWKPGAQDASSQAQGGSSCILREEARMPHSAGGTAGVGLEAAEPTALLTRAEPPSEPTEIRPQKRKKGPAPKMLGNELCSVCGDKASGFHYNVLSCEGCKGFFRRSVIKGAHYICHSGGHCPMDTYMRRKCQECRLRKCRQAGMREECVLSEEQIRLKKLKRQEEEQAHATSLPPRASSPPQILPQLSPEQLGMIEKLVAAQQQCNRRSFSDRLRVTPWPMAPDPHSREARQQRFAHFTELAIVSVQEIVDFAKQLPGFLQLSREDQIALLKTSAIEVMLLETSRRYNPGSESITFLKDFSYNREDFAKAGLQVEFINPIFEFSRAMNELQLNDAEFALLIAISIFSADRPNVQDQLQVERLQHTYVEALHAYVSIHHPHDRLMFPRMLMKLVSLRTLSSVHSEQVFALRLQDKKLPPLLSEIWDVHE
Kind of data set: Activity against LXR alpha transiently transfected in HEK293 cells. It counts as cell-based.
Conditions: not given
In turn, `CN(c1ccccc1)S(=O)(=O)c1ccc(C(O)(C(F)(F)F)C(F)(F)F)cc1` yielded a concentration for a half-maximal effect (EC50) of 100 nM. On to `CN(C(=O)c1ccc(C(O)(C(F)(F)F)C(F)(F)F)cc1)c1ccccc1`, for which the 50% effective concentration (EC50) stood at 200 nM.

Take `CN(c1ccc(C(O)C(F)(F)F)cc1)S(=O)(=O)c1ccccc1` (stereo unspecified): the EC50 is over 5000 nM. `CC(C)COC(=O)N(C)c1ccc(C(O)(C(F)(F)F)C(F)(F)F)cc1`: the concentration for a half-maximal effect (EC50) is 100 nM. Take `COC(c1ccc(N(C)S(=O)(=O)c2ccccc2)cc1)(C(F)(F)F)C(F)(F)F`: a half-maximal response (EC50) required 1000 nM. In turn, `CN(c1cccc(C(O)(C(F)(F)F)C(F)(F)F)c1)S(=O)(=O)c1ccccc1` showed an EC50 of 1000 nM.

On to `CN(c1ccc(C(O)(C(F)(F)F)C(F)(F)F)c(Cl)c1)S(=O)(=O)c1ccccc1`, for which the EC50 was over 5000 nM.

In turn, `O=S(=O)(c1ccccc1)N1CCc2cc(C(O)(C(F)(F)F)C(F)(F)F)ccc21` gave a half-maximal effective concentration (EC50) of 50 nM. That is a double-digit nanomolar value. `CN(c1ccc(C(O)(C(F)(F)F)C(F)(F)F)cc1)S(=O)(=O)c1cccs1` came in with an EC50 of 600 nM. This EC50 is about 12-fold higher than that of the compound before.

Compound `CN(c1ccc(C(O)(C(F)(F)F)C(F)(F)F)cc1)S(=O)(=O)c1cccc(S(N)(=O)=O)c1` showed a concentration giving a half-maximal response (EC50) of 80 nM. With `CN(c1ccc(C(O)(C(F)(F)F)C(F)(F)F)cc1)S(=O)(=O)c1cccc(C#N)c1`, the EC50 amounted to 20 nM. As for `CN(c1ccc(C(O)(C(F)(F)F)C(F)(F)F)cc1)S(=O)(=O)c1cccc(-c2ccccc2)c1`, the EC50 amounted to 30 nM. `O=S(=O)(c1ccccc1)N(c1ccc(C(O)(C(F)(F)F)C(F)(F)F)cc1)C1CCCC1` registered a concentration for a half-maximal effect (EC50) of 8 nM. In turn, `CN(c1ccc(C(O)(C(F)(F)F)C(F)(F)F)cc1)S(=O)(=O)c1ccc(C#N)cc1` returned an EC50 of 2000 nM. With `CN(C(=O)c1ccccc1)c1ccc(C(O)(C(F)(F)F)C(F)(F)F)cc1`, the concentration for a half-maximal effect (EC50) stood at 100 nM. In turn, `CN(c1ccc(C(O)(C(F)(F)F)C(F)(F)F)cc1Cl)S(=O)(=O)c1ccccc1` yielded a concentration for a half-maximal effect (EC50) of 200 nM. Compared with the last compound, the EC50 is about 2-fold higher. `O=S(=O)(c1ccccc1)N1CCCCc2cc(C(O)(C(F)(F)F)C(F)(F)F)ccc21` showed a concentration for a half-maximal effect (EC50) of 10 nM. On the same count and under the same terms, next, `CN(Cc1ccc(C(O)(C(F)(F)F)C(F)(F)F)cc1)S(=O)(=O)c1ccccc1`: 3000 nM; `CC(C)CN(c1ccc(C(O)(C(F)(F)F)C(F)(F)F)cc1)S(=O)(=O)c1cccs1`: 40 nM.

Take `O=S(=O)(c1ccccc1)N1CCCc2cc(C(O)(C(F)(F)F)C(F)(F)F)ccc21`: the EC50 was 30 nM. `O=S(=O)(c1ccccc1)N1CCOc2cc(C(O)(C(F)(F)F)C(F)(F)F)ccc21` registered an EC50 of 100 nM. Turning to `O=S(=O)(Nc1ccc(C(O)(C(F)(F)F)C(F)(F)F)cc1)c1ccccc1`, the midpoint of the response, the EC50, lay at 4000 nM.

As for `CN(c1ccc(C(C)(O)C(F)(F)F)cc1)S(=O)(=O)c1ccccc1` (stereo unspecified), the concentration giving a half-maximal response (EC50) was determined as 5000 nM. This EC50 and that of the compound before are within 1.5-fold of each other.

In turn, `CN(c1ccc(C(O)(C(F)(F)F)C(F)(F)F)cc1)S(=O)(=O)c1ccccc1C#N` returned a half-maximal effective concentration (EC50) of 700 nM. `C[C@H](CC[C@@H]1OC1(C)C)[C@H]1CC[C@H]2[C@@H]3CC=C4C[C@@H](O)CC[C@]4(C)[C@H]3CC[C@]12C` [24(S),25-EPOXYCHOLESTEROL] had an EC50 of 500 nM. This EC50 and that of the compound before are within 1.5-fold of each other.

System in a further data set: not listed separately
Description: AUC in mice at 5 mg/kg, po. The conditions noted are these: mouse, plasma. It counts as ADME, organism-based. Also on record: dose 5 mg/kg, route oral.
For `O=S(=O)(c1ccccc1)N(CC(F)(F)F)c1ccc(C(O)(C(F)(F)F)C(F)(F)F)cc1` [T091317], the AUC came out at 3420 ng·h/mL.

System in a further data set: not listed separately
Description: Half life in mice at 5 mg/kg, po. Type of data set: ADME, organism-based. Also on record: dose 5 mg/kg, route oral. Particulars: mouse, in vivo.
Regarding `O=S(=O)(c1ccccc1)N(CC(F)(F)F)c1ccc(C(O)(C(F)(F)F)C(F)(F)F)cc1` [T091317], the half-life is 3 h.

System in a further data set: not listed separately
Description: AUC in dog at 5 mg/kg, po. It counts as ADME, organism-based, Canis lupus familiaris. Details: dose 5 mg/kg, route oral. Particulars: plasma.
Consider `O=S(=O)(c1ccccc1)N(CC(F)(F)F)c1ccc(C(O)(C(F)(F)F)C(F)(F)F)cc1` [T091317], for which the AUC was 7300 ng·h/mL.

System in another data set: not listed separately
Description: Half life in dog at 5 mg/kg, po. Type of data set: ADME, organism-based, Canis lupus familiaris. Also on record: dose 5 mg/kg, route oral. The conditions noted are these: in vivo.
`O=S(=O)(c1ccccc1)N(CC(F)(F)F)c1ccc(C(O)(C(F)(F)F)C(F)(F)F)cc1` [T091317] gave a half-life of 5.8 h.

System in a further data set: not listed separately
Description: AUC in Sprague-Dawley rat at 5 mg/kg, po. It counts as ADME, organism-based. The conditions noted are these: plasma. Also on record: dose 5 mg/kg, route oral.
Compound `CC(C)CN(c1ccc(C(O)(C(F)(F)F)C(F)(F)F)cc1)S(=O)(=O)c1cccs1` showed an exposure (AUC) of 3200 ng·h/mL. On to `O=S(=O)(c1ccccc1)N(CC(F)(F)F)c1ccc(C(O)(C(F)(F)F)C(F)(F)F)cc1` [T091317], for which the AUC came out at 5920 ng·h/mL.

The values are drawn from ChEMBL document CHEMBL1146053, “Discovery and optimization of a novel series of liver X receptor-alpha agonists” (Bioorg Med Chem Lett, 2006).
